Patent US20240246931A1, “COMPOUNDS AS PD1/PD-L1 INHIBITORS AND METHODS THEREOF” (JUBILANT PRODEL LLC, priority 2021, published 2024)

Key:
[1] = Metabolic stability in human liver microsomes; type: in vitro ADME; details: human liver microsomes 1.0 mg/mL, compound 1 μM, NADPH, first number of HLM/MLM cell
From the text: (§1) Metabolic Stability in Liver Microsomes
(§2) The purpose of this experiment is to measure the metabolic half-life of NCEs in sub-cellular fractions such as human liver microsomes (HLM) or mouse liver microsomes (MLM). This provides an in vitro means to calculate intrinsic hepatic clearance, and to support the prediction of human pharmacokinetics. This approach has been successfully utilized at early phase of drug discovery projects, to provide SAR input for reducing metabolic instability and for predicting in vivo hepatic clearance.
(§3) Procedure: Potassium phosphate buffer (66.7 mM, pH 7.4) containing liver microsomes (mouse and human) (1.0 mg/mL) was pre-incubated separately with compound (1 μM) and positive control (verapamil, 1 μM) in a 37° C. water bath for 5 min. The reactions were initiated by adding 20 μL of 10 mM NADPH. Reactions without NADPH (0 and 30 min) were also incubated to rule out non-NADPH metabolism or chemical instability in the incubation buffer. All reactions were terminated using 200 μL of ice-cold acetonitrile containing internal standard at 0, 5, 15 and 30 min. The vials were centrifuged at 3000 rpm for 15 min. The supernatants thus obtained were analyzed on LC-MS/MS to monitor the disappearance of test compound.

[2] = Metabolic stability in mouse liver microsomes; type: in vitro ADME; details: mouse liver microsomes 1.0 mg/mL, compound 1 μM, NADPH, second number of HLM/MLM cell
From the text: as §1, §2, §3

PD-1/PD-L1 interaction = target: T1, PD-1/PD-L1 interaction (Homo sapiens, UniProt Q9NZQ7); assay: PD-1/PD-L1 HTRF binding assay (CisBio kit); details: HTRF PD1/PD-L1 inhibition assay
T1 construct: purchased CisBio 63ADK000CPAPEG
Procedure, shortened: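 HTRF kit assay: compound was preincubated 15 min with tagged PD-L1 and PD-1 proteins, then Eu-cryptate and XL665 anti-tag antibodies were added for 1 h at room temperature. Readout was the 665/620 nm ratio ×10^4. IC50 was binned as A <100 nM, B 100–500 nM, C >500 nM.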

T1 sequence (Q9NZQ7 19-238 limits assumed): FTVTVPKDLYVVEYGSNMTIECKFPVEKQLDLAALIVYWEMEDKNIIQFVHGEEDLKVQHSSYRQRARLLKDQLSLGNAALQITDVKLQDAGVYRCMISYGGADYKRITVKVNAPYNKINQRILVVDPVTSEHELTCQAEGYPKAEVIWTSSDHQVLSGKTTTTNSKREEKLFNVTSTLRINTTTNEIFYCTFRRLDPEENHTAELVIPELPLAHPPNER

Compound	HLM % remaining @ 30 min [1]	MLM % remaining @ 30 min [2]	IC50 (PD-1/PD-L1 interaction)
N#Cc1cncc(COc2cc(OCc3cccc(-c4ccccc4)c3C#N)c3c(c2CN2CCC[C@H]2CO)CCC3)c1 [Example 3, (S)-5-(((7-((2-cyano-[1,1′-biphenyl]-3-yl)methoxy)-4-((2-(hydroxymethyl)pyrrolidin-1-yl)methyl)-2,3-dihydro-1H-inden-5-yl)oxy)methyl)nicotinonitrile]	22%	14%	< 100 nM
Cc1c(COc2cc(OCc3cncc(C#N)c3)c(CN3CC4(CCC3CO)CC4)c3c2CCC3)cccc1-c1ccccc1 (stereo not drawn) [Example 11, 5-(((4-((6-(hydroxymethyl)-5-azaspiro[2.5]octan-5-yl)methyl)-7-((2-methyl-[1,1′-biphenyl]-3-yl)methoxy)-2,3-dihydro-1H-inden-5-yl)oxy)methyl)nicotinonitrile]	21%	11%	< 100 nM
Cc1c(COc2cc(OCc3cncc(C(N)=O)c3)c(CN3CCCC[C@H]3CO)c3c2CCC3)cccc1-c1ccccc1 [Example 37, (S)-5-(((4-((2-(hydroxymethyl)piperidin-1-yl)methyl)-7-((2-methyl-[1,1′-biphenyl]-3-yl)methoxy)-2,3-dihydro-1H-inden-5-yl)oxy)methyl)nicotinamide]	86%	88%	< 100 nM
Cc1c(COc2cc(OCC(F)(F)F)c(CN3CCCC[C@H]3CO)c3c2CCC3)cccc1-c1ccccc1 [Example 24, (S)-(1-((7-((2-methyl-[1,1′-biphenyl]-3-yl)methoxy)-5-(2,2,2-trifluoroethoxy)-2,3-dihydro-1H-inden-4-yl)methyl)piperidin-2-yl)methanol]	72%	67%	< 100 nM
N#Cc1cncc(COc2cc(OCc3cccc(-c4ccccc4)c3C#N)c3c(c2CN2CCCC[C@H]2CO)CCC3)c1 [Example 5, (S)-5-(((7-((2-cyano-[1,1′-biphenyl]-3-yl)methoxy)-4-((2-(hydroxymethyl)piperidin-1-yl)methyl)-2,3-dihydro-1H-inden-5-yl)oxy)methyl)nicotinonitrile]	16%	13%	< 100 nM
Cc1c(COc2cc(OCCCF)c(CN3CCCC[C@H]3CO)c3c2CCC3)cccc1-c1ccccc1 [Example 32, (S)-(1-((5-(3-fluoropropoxy)-7-((2-methyl-[1,1′-biphenyl]-3-yl)methoxy)-2,3-dihydro-1H-inden-4-yl)methyl)piperidin-2-yl)methanol]	81%	84%	< 100 nM
Cc1c(COc2cc(OCCCCCF)c(CN3CCCC[C@H]3CO)c3c2CCC3)cccc1-c1ccccc1 [Example 30, (S)-(1-((5-((5-fluoropentyl)oxy)-7-((2-methyl-[1,1′-biphenyl]-3-yl)methoxy)-2,3-dihydro-1H-inden-4-yl)methyl)piperidin-2-yl)methanol]	57%	74%	< 100 nM
Cc1c(COc2cc(OCc3cncc(C#N)c3)c(CN3CCCC4CC43CO)c3c2CCC3)cccc1-c1ccccc1 (stereo not drawn) [Example 35, 5-(((4-((1-(hydroxymethyl)-2-azabicyclo[4.1.0]heptan-2-yl)methyl)-7-((2-methyl-[1,1′-biphenyl]-3-yl)methoxy)-2,3-dihydro-1H-inden-5-yl)oxy)methyl)nicotinonitrile]	3/3%	3/3%	< 100 nM
Cc1c(COc2cc(OCc3cccc(C(N)=O)c3)c(CN3CCC[C@H]3CO)c3c2CCC3)cccc1-c1ccccc1 [Example 38, (S)-3-(((4-((2-(hydroxymethyl)pyrrolidin-1-yl)methyl)-7-((2-methyl-[1,1′-biphenyl]-3-yl)methoxy)-2,3-dihydro-1H-inden-5-yl)oxy)methyl)benzamide]	78%	84%	< 100 nM
Cc1c(COc2cc(OCc3cncc(C#N)c3)c(CN3CC4(CC4)C[C@H]3CO)c3c2CCC3)cccc1-c1ccccc1 [Example 25, (S)-5-(((4-((6-(hydroxymethyl)-5-azaspiro[2.4]heptan-5-yl)methyl)-7-((2-methyl-[1,1′-biphenyl]-3-yl)methoxy)-2,3-dihydro-1H-inden-5-yl)oxy)methyl)nicotinonitrile]	45%	61%	< 100 nM
Cc1c(COc2cc(OCc3cncc(C#N)c3)c(CN3C[C@H](O)C[C@H]3CO)c3c2CCC3)cccc1-c1ccccc1 [Example 6]	67%	87%	< 100 nM
N#Cc1c(COc2cc(OCC(F)(F)F)c(CN3CCCC[C@H]3CO)c3c2CCC3)cccc1-c1ccccc1 [Example 23, (S)-3-(((7-((2-(hydroxymethyl)piperidin-1-yl)methyl)-6-(2,2,2-trifluoroethoxy)-2,3-dihydro-1H-inden-4-yl)oxy)methyl)-[1,1′-biphenyl]-2-carbonitrile]	27%	25%	< 100 nM
Cc1c(COc2cc(OCc3cccc(C#N)c3)c(CN3CCCC[C@H]3CO)c3c2CCC3)cccc1-c1ccccc1 [Example 2, (S)-3-(((4-((2-(hydroxymethyl)piperidin-1-yl)methyl)-7-((2-methyl-[1,1′-biphenyl]-3-yl)methoxy)-2,3-dihydro-1H-inden-5-yl)oxy)methyl)benzonitrile]	58%	62%	< 100 nM
N#Cc1cncc(COc2cc(OCc3cccc(-c4ccccc4)c3C#N)c3c(c2CN2CC4(CC4)C[C@H]2CO)CCC3)c1 [Example 26, (S)-5-(((7-((2-cyano-[1,1′-biphenyl]-3-yl)methoxy)-4-((6-(hydroxymethyl)-5-azaspiro[2.4]heptan-5-yl)methyl)-2,3-dihydro-1H-inden-5-yl)oxy)methyl)nicotinonitrile]	6%	5%	< 100 nM
Cc1c(COc2cc(OCc3cncc(C#N)c3)c(CN3CCC3CO)c3c2CCC3)cccc1-c1ccccc1 (stereo not drawn) [Example 10, 5-(((4-((2-(hydroxymethyl)azetidin-1-yl)methyl)-7-((2-methyl-[1,1′-biphenyl]-3-yl)methoxy)-2,3-dihydro-1H-inden-5-yl)oxy)methyl)nicotinonitrile]	69%	70%	< 100 nM
